What was measured:
[1] = oral dosing; cited from earlier work
[2] = Liver S9 fraction stability, human; format: in vitro ADME; settings: 2 μM, 1.0 mg/ml S9 protein, 37° C.
Description: (§1) Liver S9 fraction stability determination of the test compounds in dog, cynomolgus monkey and human is performed using HPLC-MS. Test compound (2 μM, 0.1% DMSO, 1% Methanol final concentration) was assessed for stability in a 50 μl phosphate buffer containing 1.0 mg/ml S9 protein from each of the three species and 5 mM D-saccharic acid-1, 4-lactone. Samples were incubated at 37° C. for 60 minutes and the % compound remaining was assessed.

[3] = Plasma stability, dog plasma (HPLC-MS); format: in vitro ADME; settings: 2 μM, 37° C.
Description: (§2) Plasma stability determination of the test compounds in rat, dog, cynomolgus monkey and human plasma is performed using HPLC-MS. For rat, incubations are carried out in 96-well polypropylene plates in 5 aliquots of 70 μL each (one for each time point). […] Five time points are analyzed (0, 15, 120, 480 and 1440 min). For dog, monkey and human, test compounds (2 μM, final solvent concentration 1%) were also incubated at 37° C. and analyzed at five time points (0, 10, 30, 60 and 120 min). All incubations are performed in duplicates. The samples are analyzed by HPLC-MS. The percentage of parent compound remaining after incubation in plasma is determined.

[4] = Plasma stability, human plasma (HPLC-MS); format: in vitro ADME; settings: 2 μM, 37° C.
Description: as §2, with “For dog, monkey and human, test compounds (2 μM, final solvent concentration 1%) were also incubated at 37° C. and analyzed at five time points (0, 10, 30, 60 and 120 min).” left out

[5] = Liver S9 fraction stability, cynomolgus monkey; format: in vitro ADME; settings: 2 μM, 1.0 mg/ml S9 protein, 37° C.
Description: as §1

[6] = Plasma stability, cynomolgus monkey plasma (HPLC-MS); format: in vitro ADME; settings: 2 μM, 37° C., 0 min
Description: as §2, with “For dog, monkey and human, test compounds (2 μM, final solvent concentration 1%) were also incubated at 37° C. and analyzed at five time points (0, 10, 30, 60 and 120 min).” left out

[7] = Plasma stability, rat plasma (HPLC-MS); format: in vitro ADME; settings: 10 μM, 37° C.
Method in brief: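 Rat, dog, cynomolgus monkey and human plasma incubated in duplicate; rat sampled at 0, 15, 120, 480 and 1440 min. Dog, monkey and human used 2 μM compound (final), 1% solvent, 37° C., sampled at 0, 10, 30, 60 and 120 min. HPLC-MS gave % parent remaining.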

[8] = Clinical observations for dogs in pharmacokinetic studies; format: in vivo, Beagle dogs; settings: 48 mg/kg DeepIM
Method in brief: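 Dogs sedated with propofol 6 mg/kg IV, then given deep IM injection (≥2.5 cm into quadriceps or biceps femoris) of 400 mg base equivalents/ml in sesame oil + 1% benzyl alcohol, unless otherwise specified; vehicle injected contralaterally. Dose volume set by dosing-day body weight; weights recorded weekly.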

[9] = Liver S9 fraction stability, dog; format: in vitro ADME; settings: 2 μM, 1.0 mg/ml S9 protein, 37° C.
Description: as §1

[10] = Rat pharmacokinetic studies, intramuscular administration; format: in vivo, male Sprague Dawley Rats; settings: rat IM 0.80 mg/kg, saline
Description: The purpose of this study is to determine the pharmacokinetics of test compounds in plasma, following intramuscular administration to male Sprague Dawley Rats (n=3, unless otherwise specified).
The dose formulation of 400 mg base equivalents/ml in sesame oil+1% benzyl alcohol (unless otherwise specified) was administered by intramuscular injection. The dose volume was determined by the animals' body weight determined on the morning of dosing day.
Each collected blood sample was centrifuged for 4 minutes at 4° C. and 10000 rpm for plasma collection. Plasma was collected and transferred into a pre-labeled PP tube in dry ice at each time point and precipitated immediately using ACN at a ratio of 1:4 (plasma:ACN). Centrifuged again (10 minutes, 12000 rpm) and obtain the supernatant.
LC-MS/MS methods for the quantitative determination of test compound in biological matrix were developed. […] The sample analysis was performed concurrently with a set of calibration standards and two sets of QC samples using the LC-MS/MS method.
Plasma concentration versus time data was analyzed by non-compartmental approaches using the Phoenix WinNonlin 6.3 software program. Cmax, Tmax, T1/2, AUC(0-t), AUC(0-inf), MRT(0-t), MRT(0-inf) and graphs of plasma concentration versus time profile were prepared.

Compound: Oc1ccc2c3c1O[C@H]1[C@H](O)CC[C@@]4(O)[C@@H](C2)N(CC2CC2)CC[C@]314 [6-β-naltrexol]
- mean elimination half-life [1]: thirteen

Compound: C=C1CC[C@@]2(O)C3Cc4ccc(OC(=O)OCCCCCCCCCCCC)c5c4[C@@]2(CCN3CC2CC2)[C@H]1O5 [Compound 6, (4aS,7aS,12bS)-3-(cyclopropylmethyl)-4a-hydroxy-7-methylene-2,3,4,4a,5,6,7,7a-octahydro-1H-4,12-methanobenzofuro[3,2-e]isoquinolin-9-yl dodecyl carbonate]
- Liver S9 Fraction Stability, % remaining at 60 minutes, Human [2]: 5.3%
- % remaining at time point in minutes, 0 min [3]: 100%
- % remaining at time point in minutes, 0 min [4]: 100%
- Liver S9 Fraction Stability, % remaining at 60 minutes, Monkey [5]: 0%
- % remaining at time point in minutes, 0 min [6]: 100%
- % remaining at time point in minutes, 0 min [7]: 100%
- % remaining at time point in minutes, 120 min ([7]; 120 min): 7.6%
- % remaining at time point in minutes, 480 min [7]: 4%
- % remaining at time point in minutes, 1440 min [7]: 1.6%

Compound: C=C1CC[C@@]2(O)C3Cc4ccc(OCOC(=O)OCCCCCCCCCCCC)c5c4[C@@]2(CCN3CC2CC2)[C@H]1O5 [Compound 24, (((4aS,7aS,12bS)-3-(cyclopropylmethyl)-4a-hydroxy-7-methylene-2,3,4,4a,5,6,7,7a-octahydro-1H-4,12-methanobenzofuro[3,2-e]isoquinolin-9-yl)oxy)methyl dodecyl carbonate]
- Liver S9 Fraction Stability, % remaining at 60 minutes, Human [2]: 3.5%
- BT ([8]; dog D1501, 24 hr): 38.8
- BT ([8]; dog D1501, 96 hr): limb/BT: 39.2
- BT ([8]; dog D1501, 120 hr): 39.2
- BT ([8]; dog D1501, 144 hr): 39.6
- BT ([8]; dog D1501, 192 hr): calf/BT: 39.0
- BT ([8]; dog D1501, 216 hr): 8 * 5 cm/BT: 39.0
- BT ([8]; dog D1501, 240 hr): 8 * 5 cm/BT: 39.0
- BT ([8]; dog D1501, 264 hr): 6 * 5 cm/BT: 38.9
- BT ([8]; dog D1501, 288 hr): 6 * 5 cm/BT: 38.9
- BT ([8]; dog D1501, […]): 39.6
- BT ([8]; dog D1502, 96 hr): groin/red/BT: 38.3
- BT ([8]; dog D1502, 120 hr): groin/red/BT: 38.7
- BT ([8]; dog D1502, 144 hr): groin/red/BT: 38.3
- BT ([8]; dog D1502, 192 hr): groin/red/BT: 38.5
- BT ([8]; dog D1502, 216 hr): groin/red/BT: 38.4
- BT ([8]; dog D1502, 240 hr): leg/red/BT: 38.9
- BT ([8]; dog D1502, 264 hr): leg/red/BT: 38.3
- BT ([8]; dog D1502, 288 hr): leg/red/BT: 38.5
- BT ([8]; dog D1502, […]): groin/red/BT: 38.4
- BT ([8]; third dog (head prints D1502), 144 hr): 8 * 8 cm/BT: 39.5
- BT ([8]; third dog (head prints D1502), 192 hr): 8 * 8 cm/BT: 38.0
- BT ([8]; third dog (head prints D1502), 216 hr): 8 * 8 cm/BT: 38.8
- BT ([8]; third dog (head prints D1502), 240 hr): 8 * 8 cm/BT: 39.2
- BT ([8]; third dog (head prints D1502), 264 hr): 8 * 8 cm/BT: 38.9
- BT ([8]; third dog (head prints D1502), 288 hr): 8 * 8 cm/BT: 38.8
- BT ([8]; third dog (head prints D1502), […]): 8 * 8 cm/BT: 39.3
- % remaining at time point in minutes, 0 min [3]: 100%
- % remaining at time point in minutes, 0 min [4]: 100%
- % remaining at time point in minutes, 15 min ([4]; 15 min): 94%
- Liver S9 Fraction Stability, % remaining at 60 minutes, Monkey [5]: 3%
- % remaining at time point in minutes, 0 min [6]: 100%
- Liver S9 Fraction Stability, % remaining at 60 minutes, Dog [9]: 3.6%
- % remaining at time point in minutes, 0 min [7]: 100%
- % remaining at time point in minutes, 15 min ([7]; 15 min): 32%
- % remaining at time point in minutes, 480 min [7]: 8.2%
- % remaining at time point in minutes, 1440 min [7]: 3%

Compound: C=C1CC[C@@]2(O)[C@H]3Cc4ccc(O)c5c4[C@@]2(CCN3CC2CC2)[C@H]1O5.Cl [Nalmefene HCl-IR]
- AUC0-inf (ng · h/mL) nalmefene [10]: 66.0 ng·h/mL
- Terminal Half-life t1/2 (hour) nalmefene [10]: 0.87 h
